Laboratory results from patent US9725445B2, “Cycloalkyl nitrile pyrazolo pyridones as Janus kinase inhibitors” (Merck Sharp & Dohme Corp., priority 2013, dated 2017).

Legend:
JAK1 = JAK1 (Homo sapiens (Human), UniProt P23458); assay: Jak biochemical HTRF assay, JAK1; details: HTRF biochemical assay, recombinant GST-tagged catalytic domain; read-out: JAK1 IC50
JAK2 = JAK2 (Homo sapiens (Human), UniProt O60674); assay: Jak biochemical HTRF assay, JAK2; details: HTRF biochemical assay, recombinant GST-tagged catalytic domain; read-out: JAK2 IC50
JAK2, sequence (O60674 849-1124): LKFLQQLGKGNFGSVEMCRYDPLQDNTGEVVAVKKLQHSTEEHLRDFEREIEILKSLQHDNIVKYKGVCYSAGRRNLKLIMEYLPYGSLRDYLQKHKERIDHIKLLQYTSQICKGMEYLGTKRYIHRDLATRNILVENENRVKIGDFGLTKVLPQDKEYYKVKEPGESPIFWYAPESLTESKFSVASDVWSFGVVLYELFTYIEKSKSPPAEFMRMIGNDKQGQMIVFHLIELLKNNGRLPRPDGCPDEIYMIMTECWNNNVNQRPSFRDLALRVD

JAK1, sequence (P23458 875-1153): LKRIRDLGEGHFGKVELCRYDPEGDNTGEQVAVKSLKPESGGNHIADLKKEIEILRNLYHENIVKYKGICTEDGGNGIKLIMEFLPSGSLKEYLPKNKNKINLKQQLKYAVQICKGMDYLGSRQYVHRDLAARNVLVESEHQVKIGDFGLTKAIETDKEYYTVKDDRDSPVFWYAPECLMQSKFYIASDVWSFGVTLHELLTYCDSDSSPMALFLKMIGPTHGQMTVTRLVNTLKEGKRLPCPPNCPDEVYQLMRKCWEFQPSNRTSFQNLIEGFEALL

Structure (SMILES) | IC50 (JAK1) [nM] | IC50 (JAK2) [nM]
C[C@H](N[C@H]1CC[C@H](n2nc(Nc3ccc(OC(F)(F)F)cc3)c3c(=O)[nH]ccc32)[C@@H](C#N)C1)C1CC1 [Example 5-28, (1S,2S,5S)-5-(((S)-1-cyclopropylethyl)amino)-2-(4-oxo-3-((4-(trifluoromethoxy)phenyl)amino)-4,5-dihydro-1H-pyrazolo[4,3-c]pyridin-1-yl)cyclohexanecarbonitrile] | 0.5 | 37
CN(C(C)(C)C)S(=O)(=O)c1ccc(Nc2nn([C@@H]3CCCCC[C@H]3C#N)c3cc[nH]c(=O)c23)cc1 (single isomer, unassigned) [Example 15-51, N-tert-butyl-4-({1-[(1R,2R or 1S,2S)-2-cyanocycloheptyl]-4-oxo-4,5-dihydro-1H-pyrazolo[4,3-c]pyridin-3-yl}amino)-N-methylbenzenesulfonamide] | 0.23 | 0.37
CC(O)(c1ccc(Nc2nn([C@H]3CCCC[C@@H]3C#N)c3cc[nH]c(=O)c23)cc1)C(F)(F)F (single isomer, unassigned) [Example 15-12, (1S,2S)-2-[4-oxo-3-({4-[(1R or 1S)-2,2,2-trifluoro-1-hydroxy-1-methylethyl]phenyl}amino)-4,5-dihydro-1H-pyrazolo[4,3-c]pyridin-1-yl]cyclohexanecarbonitrile] | 0.14 | 0.84
N#C[C@H]1CCCC[C@@H]1n1nc(Nc2ccc(Cl)cc2)c2c(=O)[nH]ccc21 [Example 3-91, (1S,2S)-2-(3-((4-chlorophenyl)amino)-4-oxo-4,5-dihydro-1H-pyrazolo[4,3-c]pyridin-1-yl)cyclohexanecarbonitrile] | 0.45 | 10.3
CC1c2cc(Nc3nn([C@H]4CCCC[C@@H]4C#N)c4cc[nH]c(=O)c34)ccc2S(=O)(=O)N1C (single isomer, unassigned) [Example 3-127, (1S,2S)-2-(3-(((R or S)-2,3-dimethyl-1,1-dioxido-2,3-dihydrobenzo[d]isothiazol-5-yl)amino)-4-oxo-4,5-dihydro-1H-pyrazolo[4,3-c]pyridin-1-yl)cyclohexanecarbonitrile] | 0.33 | 2.6
N#C[C@H]1CCCC[C@@H]1n1nc(Nc2ccc([C@@H](N)C(F)(F)F)cc2)c2c(=O)[nH]ccc21 [Example 7-3, (1S,2S)-2-[3-({4-[(1R)-1-amino-2,2,2-trifluoroethyl]phenyl}amino)-4-oxo-4,5-dihydro-1H-pyrazolo[4,3-c]pyridin-1-yl]cyclohexanecarbonitrile] | 0.12 | 0.37
N#C[C@H]1CCCC[C@@H]1n1nc(Nc2ccc3c(c2)CN(CC2CC2)S3(=O)=O)c2c(=O)[nH]ccc21 [Example 3-63, (1S,2S)-2-(3-{[2-(cyclopropylmethyl)-1,1-dioxido-2,3-dihydro-1,2-benzisothiazol-5-yl]amino}-4-oxo-4,5-dihydro-1H-pyrazolo[4,3-c]pyridin-1-yl)cyclohexanecarbonitrile] | 0.066 | 0.54
N#C[C@@H]1CCCC[C@H]1n1nc(Nc2cccc(CNC(=O)c3ncccn3)c2)c2c(=O)[nH]ccc21 [Example 3-14, N-[3-({1-[(1R,2R)-2-cyanocyclohexyl]-4-oxo-4,5-dihydro-1H-pyrazolo[4,3-c]pyridin-3-yl}amino)benzyl]pyrimidine-2-carboxamide] | 38 | 68
Cc1cc(Nc2nn([C@H]3CCCC[C@@H]3C#N)c3cc[nH]c(=O)c23)ccc1C(C(C)C)n1ccnn1 (single isomer, unassigned) [Example 15-38, (1S,2S)-2-[3-({3-methyl-4-[(1R or 1S)-2-methyl-1-(1H-1,2,3-triazol-1-yl)propyl]phenyl}amino)-4-oxo-4,5-dihydro-1H-pyrazolo[4,3-c]pyridin-1-yl]cyclohexanecarbonitrile] | 0.06 | 0.15
Cc1cc(Nc2nn([C@@H]3CCCCC[C@H]3C#N)c3cc[nH]c(=O)c23)ccc1C(O)C(F)(F)F (single isomer, unassigned) [Example 15-67, (1R,2R or 1S,2S)-2-[3-({3-methyl-4-[(1S or 1R)-2,2,2-trifluoro-1-hydroxyethyl]phenyl}amino)-4-oxo-4,5-dihydro-1H-pyrazolo[4,3-c]pyridin-1-yl]cycloheptanecarbonitrile] | 0.38 | 3.9
N#C[C@H]1CCCC[C@@H]1n1nc(Nc2cccc(CNC(=O)c3ncccn3)c2)c2c(=O)[nH]ccc21 [Example 3-17, N-[3-({1-[(1S,2S)-2-cyanocyclohexyl]-4-oxo-4,5-dihydro-1H-pyrazolo[4,3-c]pyridin-3-yl}amino)benzyl]pyrimidine-2-carboxamide] | 0.91 | 5.8
N#C[C@H]1CCCC[C@@H]1n1nc(Nc2cccc(Cn3ccnc3)c2)c2c(=O)[nH]ccc21 [Example 3-47, (1S,2S)-2-(3-{[3-(1H-imidazol-1-ylmethyl)phenyl]amino}-4-oxo-4,5-dihydro-1H-pyrazolo[4,3-c]pyridin-1-yl)cyclohexanecarbonitrile] | 0.78 | 2.2
C[C@H](NCC(F)(F)F)c1ccc(Nc2nn([C@H]3CCCC[C@@H]3C#N)c3cc[nH]c(=O)c23)cc1 [Example 3-73, (1S,2S)-2-{4-oxo-3-[(4-{(1S)-1-[(2,2,2-trifluoroethyl)amino]ethyl}phenyl)amino]-4,5-dihydro-1H-pyrazolo[4,3-c]pyridin-1-yl}cyclohexanecarbonitrile] | 0.26 | 0.45

Continued, values first:

IC50 (JAK1) [nM] | IC50 (JAK2) [nM] | Structure (SMILES)
0.45 | 0.5 | N#C[C@H]1CCCC[C@@H]1n1nc(Nc2ccc(C3CCCN3)cc2)c2c(=O)[nH]ccc21 (single isomer, unassigned) [Example 3-72, (1S,2S)-2-[4-oxo-3-({4-[(2R or 2S)-pyrrolidin-2-yl]phenyl}amino)-4,5-dihydro-1H-pyrazolo[4,3-c]pyridin-1-yl]cyclohexanecarbonitrile]
0.1 | 0.79 | CC(=O)NCc1cc(Nc2nn([C@H]3CCCC[C@@H]3C#N)c3cc[nH]c(=O)c23)ccc1S(=O)(=O)N(C)C [Example 3-40, N-[5-({1-[(1S,2S)-2-cyanocyclohexyl]-4-oxo-4,5-dihydro-1H-pyrazolo[4,3-c]pyridin-3-yl}amino)-2-(dimethylsulfamoyl)benzyl]acetamide]
2 | 4.4 | CSCc1cc(Cn2ccnn2)cc(Nc2nn([C@H]3CCCC[C@@H]3C#N)c3cc[nH]c(=O)c23)c1 [Example 3-78, (1S,2S)-2-[3-({3-[(methylsulfanyl)methyl]-5-(1H-1,2,3-triazol-1-ylmethyl)phenyl}amino)-4-oxo-4,5-dihydro-1H-pyrazolo[4,3-c]pyridin-1-yl]cyclohexanecarbonitrile]
0.039 | 0.19 | CC(C)(C)N1Cc2cc(Nc3nn([C@H]4CCCC[C@@H]4C#N)c4cc[nH]c(=O)c34)ccc2S1(=O)=O [Example 3-53, (1S,2S)-2-{3-[(2-tert-butyl-1,1-dioxido-2,3-dihydro-1,2-benzisothiazol-5-yl)amino]-4-oxo-4,5-dihydro-1H-pyrazolo[4,3-c]pyridin-1-yl}cyclohexanecarbonitrile]
0.48 | 0.98 | N#C[C@H]1CCCC[C@@H]1n1nc(Nc2ccc(C3CCNCC3)cc2)c2c(=O)[nH]ccc21 [Example 15-25, (1S,2S)-2-{4-oxo-3-[(4-piperidin-4-ylphenyl)amino]-4,5-dihydro-1H-pyrazolo[4,3-c]pyridin-1-yl}cyclohexanecarbonitrile]
